Columns and labels:
[1] = tested on: symptomatic chronic angina patients; assay: CARISA study: modified Bruce treadmill exercise tests and angina, ranolazine added to background anti-anginal therapy; type: in vivo, human; settings: for Prolongation of exercise duration at trough drug concentrations: Example 10 formulation
Method: (§1) The CARISA (Combination Assessment of Ranolazine in Stable Angina) study randomized 823 symptomatic chronic angina patients on diltiazem, atenolol or amlodipine to ranolazine 750 mg bid, 1000 mg bid or placebo in a parallel, double-blind, 12 week study. Modified Bruce treadmill tests were performed at baseline, and after 2, 6, and 12 weeks of treatment at trough and peak plasma levels. The ranolazine formulation used in this study was that shown in Example 10.
(§2) Angina frequency and nitroglycerin consumption were reduced by ranolazine. The ranolazine formulation used in the CARISA and MARISA studies was that shown in Example 10. The most frequently reported adverse events (dizziness constipation and nausea) were generally mild and occurred in fewer than 10% of patients. The potential use of ranolazine in diabetics is of interest because approximately one in four angina patients has diabetes.

[2] = tested on: patients with chronic angina; assay: MARISA study: treadmill exercise capacity, ranolazine alone; type: in vivo, human; settings: N=191
Source text: as §2

chronic angina patients = assay: Adverse events in CARISA and MARISA; type: in vivo, human; settings: for Patients with at least one adverse event: CARISA
Method: as §1, §2

[3] = Solubility of ranolazine in aqueous solutions as a function of pH; type: physicochemical
[4] = tested on: angina patients with diabetes; assay: CARISA study: hemoglobin A1c in angina patients with diabetes; type: in vivo, human; settings: 12 weeks; for Average absolute reduction in HbA1c compared to placebo: all diabetic patients (N=131); for Absolute reduction in HbA1c compared to placebo: diabetic patients on insulin (N=31)
Method: HbA1c levels were assayed following a modification of the method of Phillipov (Components of total measurement error for hemoglobin A1c determination. Phillipov, G., et al. Clin. Chem. (2001), 47(10):1851). (see FIG. 1) The […] (Combination Assessment of Ranolazine in Stable Angina) study randomized 823 symptomatic chronic angina patients on diltiazem, atenolol or amlodipine to ranolazine 750 mg bid, 1000 mg bid or placebo in a parallel, double-blind, 12 week study. Modified Bruce treadmill tests were performed at baseline, and after 2, 6, and 12 weeks of treatment at trough and peak plasma levels. The ranolazine formulation used in this study was that shown in Example 10.

diabetic patients [5] = assay: Open-label long-term ranolazine treatment of MARISA/CARISA diabetic patients; type: in vivo, human
Method: Efficacy and tolerability of ranolazine were similar in both diabetic and non-diabetic patients in both MARISA and CARISA. In diabetic patients in CARISA (N=131), ranolazine 750 and 1000 mg bid were associated with a mean absolute reduction in HbA1c of 0.48 percentage points and 0.70 percentage points, respectively, compared to placebo at 12 weeks (each p<0.01). The reductions versus placebo were greater in those patients on insulin (N=31; 0.84 and 1.05 percentage points), on 750 and 1000 mg bid (p<0.02 and p<0.01), respectively. Fasting glucose was not affected by ranolazine in diabetic patients in CARISA, regardless of insulin treatment; one hypoglycemic episode was reported on placebo and one on ranolazine.

angina patients = assay: Angina clinical trials using ranolazine: blood parameters (summary in background); type: in vivo, human
Source text: One compound disclosed therein, (±)-N-(2,6-dimethylphenyl)-4-[2-hydroxy-3-(2-methoxyphenoxy)-propyl]-1-piperazineacetamide (known as ranolazine) is undergoing clinical trials for the treatment of angina. […] Ranolazine was also found to reduce triglyceride levels in non-diabetic patients. Ranolazine was also found to lower glucose plasma levels and, over the long term, total cholesterol levels, while increasing HDL cholesterol levels. Thus, ranolazine provides a method of treating diabetes pre-diabetes, or the non-diabetes condition by reducing the levels of potentially toxic metabolites in blood and/or complications associated with diabetes. Ranolazine also can reduce the number of medications necessary for a patient with both cardiovascular problems and diabetes or pre-diabetes.

diabetic patients [6] = assay: CARISA study: glucose, triglyceride and cholesterol values of diabetic patients; type: in vivo, human; settings: for Glucose, change from baseline / Triglycerides, change from baseline: all diabetic patients, mean ± SEM; for Glucose, change from baseline: placebo change 1.2 ± 7.1; for Triglycerides, change from baseline: placebo change 26.3 ± 21.2
Method: as §1, with “CARISA” left out

[7] = CARISA, diabetic and non-diabetic patients
[8] = over 3 years of open-label treatment, combined MARISA/CARISA diabetic population
[9] = first 12 weeks of treatment, diabetic patients in CARISA

Compound: COc1ccccc1OCC(O)CN1CCN(CC(=O)Nc2c(C)cccc2C)CC1 (racemic) [ranolazine, N-(2,6-dimethylphenyl)-4-[2-hydroxy-3-(2-methoxyphenoxy)propyl]-1-piperazineacetamide]
- Prolongation of exercise duration at trough drug concentrations ([1]; 750 mg bid, angina patients with diabetes): 29 s
- Prolongation of exercise duration at trough drug concentrations ([1]; 750 mg bid, non-diabetic angina patients): 22 s
- Prolongation of exercise duration at trough drug concentrations ([1]; 1000 mg bid, angina patients with diabetes): 34 s
- Prolongation of exercise duration at trough drug concentrations ([1]; 1000 mg bid, non-diabetic angina patients): 21 s
- Angina frequency [1, 7]: decreased
- Time to angina [1, 7]: increased
- Angina frequency ([1]; MARISA and CARISA): reduced
- Nitroglycerin consumption ([1]; MARISA and CARISA): reduced
- Treadmill exercise capacity ([1]; added to atenolol, diltiazem, or amlodipine, CARISA, N=823): increased
- Exercise duration (ED) at trough and peak (in words) ([1]; similarly in diabetic and non-diabetic patients): prolonged
- Treadmill exercise capacity [2]: increased
- Patients with the most frequently reported adverse events (dizziness constipation and nausea) (chronic angina patients; CARISA and MARISA, generally mild): < 10%
- Patients with at least one adverse event (chronic angina patients; diabetic patients, 750 mg bid (placebo 25%)): 25%
- Patients with at least one adverse event (chronic angina patients; diabetic patients, 1000 mg bid (placebo 25%)): 34%
- Patients with at least one adverse event (chronic angina patients; non-diabetic patients, 750 mg bid (placebo 27%)): 33%
- Patients with at least one adverse event (chronic angina patients; non-diabetic patients, 1000 mg bid (placebo 27%)): 32%
- Hypoglycemic episodes reported (chronic angina patients; diabetic patients in CARISA (one on placebo)): one
- Solubility in aqueous solutions (in words) ([3]; aqueous solutions having a pH above about 6.5): relatively insoluble
- USP Solubility Class ([3]; solution pH 4.81): Freely Soluble
- USP Solubility Class ([3]; solution pH 4.89): Soluble
- USP Solubility Class ([3]; solution pH 4.90): Soluble
- USP Solubility Class ([3]; solution pH 5.04): Soluble
- USP Solubility Class ([3]; solution pH 5.35): Sparingly Soluble
- USP Solubility Class ([3]; solution pH 5.82): Slightly soluble
- USP Solubility Class ([3]; solution pH 6.46): Slightly soluble
- USP Solubility Class ([3]; solution pH 6.73): Very slightly soluble
- USP Solubility Class ([3]; solution pH 7.08): Very slightly soluble
- USP Solubility Class ([3]; solution pH 7.59 (unbuffered water)): Very slightly soluble
- USP Solubility Class ([3]; solution pH 7.79): Very slightly soluble
- USP Solubility Class ([3]; solution pH 12.66): Very slightly soluble
- Average absolute reduction in HbA1c compared to placebo ([4]; 750 mg bid, p<0.01): 0.48 percentage points
- Absolute reduction in HbA1c compared to placebo ([4]; 750 mg bid, p<0.02): 0.84 percentage points
- Absolute reduction in HbA1c compared to placebo ([4]; 750 mg bid, p<0.02, listed as Ranolazine): 0.8 percentage points
- Average absolute reduction in HbA1c compared to placebo ([4]; 1000 mg bid, p<0.01): 0.70 percentage points
- Absolute reduction in HbA1c compared to placebo ([4]; 1000 mg bid, p<0.01): 1.05 percentage points
- Absolute reduction in HbA1c compared to placebo ([4]; 1000 mg bid, p<0.01, listed as Ranolazine): 1.1 percentage points
- Decrease of HbA1c from baseline (diabetic patients [5]; after 12-24 months of open-label treatment, diabetic patients): 1.1 percentage points
- HDL cholesterol (diabetic patients [5]; [8]): continued to increase
- LDL cholesterol (diabetic patients [5]; [8]): decreased from baseline
- Total cholesterol (diabetic patients [5]; [8]): decreased from baseline
- Glucose plasma levels (angina patients; angina clinical trials): lower
- HDL cholesterol levels (angina patients; angina clinical trials): increasing
- Hemoglobulin A1 (HbA1c) levels (angina patients; diabetic angina patients): reduced
- Triglyceride levels (angina patients; diabetic angina patients, over the long term): reduced
- Triglyceride levels (angina patients; non-diabetic patients): reduce
- Total cholesterol levels (angina patients; over the long term): lower
- Glucose, change from baseline (diabetic patients [6]; 750 mg bid, baseline 168 ± 8.0): 8.0 ± 8.8 mg/dL
- Triglycerides, change from baseline (diabetic patients [6]; 750 mg bid, baseline 192.0 ± 14.5): 21.2 ± 13.5 mg/dL
- Glucose, change from baseline (diabetic patients [6]; 1000 mg bid, baseline 165.2 ± 7.8): 1.7 ± 7.2 mg/dL
- Triglycerides, change from baseline (diabetic patients [6]; 1000 mg bid, baseline 196 ± 17.5): -7.3 ± 9.3 mg/dL
- Fasting glucose (diabetic patients [6]; diabetic patients in CARISA, regardless of insulin treatment): not affected
- HDL/LDL ratio (diabetic patients [6]; [9]): changed little
- Mean increase in HDL cholesterol (diabetic patients [6]; [9]): up to 5 mg/dL
- Mean increase in LDL cholesterol (diabetic patients [6]; [9]): ≤ 11 mg/dL
- Mean increase in total cholesterol (diabetic patients [6]; [9]): up to 16 mg/dL
